Values quoted from earlier work as cited in US6534094B2, “Manufacturing process of microcapsules for sustained release of water soluble peptides” (Eriochem S.A., priority 2000, dated 2003).

Details: superactive agonist of LH-RH; fold of the biological activity of LH-RH

## CCNC(=O)[C@@H]1CCCN1C(=O)[C@H](CCCNC(=N)N)NC(=O)[C@H](CC(C)C)NC(=O)[C@@H](CC(C)C)NC(=O)[C@H](Cc1ccc(O)cc1)NC(=O)[C@H](CO)NC(=O)[C@H](Cc1c[nH]c2ccccc12)NC(=O)[C@H](Cc1c[nH]cn1)NC(=O)[C@@H]1CCC(=O)N1 [leuprolide acetate]
  biological activity relative to LH-RH: approximately 10 times
